The target in series [1] is NaV1.5 (Homo sapiens (Human), UniProt Q14524). As to the kind of experiment: Sodium Influx Assay (Flux), NaV1.5.
Series [2] addresses NaV1.6 (Homo sapiens (Human), UniProt Q9UQD0). As to the kind of experiment: Sodium Influx Assay (Flux), NaV1.6.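 Note: Tetracycline-induced cells, compounds applied for one hour at room temperature with modulators holding channels open, IC50 from percent inhibition of sodium influx.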 It counts as cell-based. As to conditions: Trex HEK293 cells, ANG2 dye, inactivated state.
Series [3] deals with NaV1.1 (Homo sapiens (Human), UniProt P35498). As to the kind of experiment: Sodium Influx Assay (Flux), NaV1.1.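 Note: channels co-expressed with human β1 subunit and held open by modulators, cells exposed to compounds for one hour at room temperature, IC50 from percent inhibition of influx.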 It counts as cell-based. To be noted: Trex HEK293 cells, ANG2 dye, inactivated state.
Where [4] appears, read: read-out: Flux NaV1.5 IC50, Trex HEK293 cells, ANG2 dye, inactivated state.

This note sets out measurements from patent US11174268B2, “Benzenesulfonamide compouds and their use as therapeutic agents” (Xenon Pharmaceuticals Inc., priority 2016, dated 2021).

Structures can show the parent of a compound that is named as a salt. Where two headings read alike, the source gives them in different places.

Chain of NaV1.5 (Q14524 other isoform, or with tags, fused parts or gaps): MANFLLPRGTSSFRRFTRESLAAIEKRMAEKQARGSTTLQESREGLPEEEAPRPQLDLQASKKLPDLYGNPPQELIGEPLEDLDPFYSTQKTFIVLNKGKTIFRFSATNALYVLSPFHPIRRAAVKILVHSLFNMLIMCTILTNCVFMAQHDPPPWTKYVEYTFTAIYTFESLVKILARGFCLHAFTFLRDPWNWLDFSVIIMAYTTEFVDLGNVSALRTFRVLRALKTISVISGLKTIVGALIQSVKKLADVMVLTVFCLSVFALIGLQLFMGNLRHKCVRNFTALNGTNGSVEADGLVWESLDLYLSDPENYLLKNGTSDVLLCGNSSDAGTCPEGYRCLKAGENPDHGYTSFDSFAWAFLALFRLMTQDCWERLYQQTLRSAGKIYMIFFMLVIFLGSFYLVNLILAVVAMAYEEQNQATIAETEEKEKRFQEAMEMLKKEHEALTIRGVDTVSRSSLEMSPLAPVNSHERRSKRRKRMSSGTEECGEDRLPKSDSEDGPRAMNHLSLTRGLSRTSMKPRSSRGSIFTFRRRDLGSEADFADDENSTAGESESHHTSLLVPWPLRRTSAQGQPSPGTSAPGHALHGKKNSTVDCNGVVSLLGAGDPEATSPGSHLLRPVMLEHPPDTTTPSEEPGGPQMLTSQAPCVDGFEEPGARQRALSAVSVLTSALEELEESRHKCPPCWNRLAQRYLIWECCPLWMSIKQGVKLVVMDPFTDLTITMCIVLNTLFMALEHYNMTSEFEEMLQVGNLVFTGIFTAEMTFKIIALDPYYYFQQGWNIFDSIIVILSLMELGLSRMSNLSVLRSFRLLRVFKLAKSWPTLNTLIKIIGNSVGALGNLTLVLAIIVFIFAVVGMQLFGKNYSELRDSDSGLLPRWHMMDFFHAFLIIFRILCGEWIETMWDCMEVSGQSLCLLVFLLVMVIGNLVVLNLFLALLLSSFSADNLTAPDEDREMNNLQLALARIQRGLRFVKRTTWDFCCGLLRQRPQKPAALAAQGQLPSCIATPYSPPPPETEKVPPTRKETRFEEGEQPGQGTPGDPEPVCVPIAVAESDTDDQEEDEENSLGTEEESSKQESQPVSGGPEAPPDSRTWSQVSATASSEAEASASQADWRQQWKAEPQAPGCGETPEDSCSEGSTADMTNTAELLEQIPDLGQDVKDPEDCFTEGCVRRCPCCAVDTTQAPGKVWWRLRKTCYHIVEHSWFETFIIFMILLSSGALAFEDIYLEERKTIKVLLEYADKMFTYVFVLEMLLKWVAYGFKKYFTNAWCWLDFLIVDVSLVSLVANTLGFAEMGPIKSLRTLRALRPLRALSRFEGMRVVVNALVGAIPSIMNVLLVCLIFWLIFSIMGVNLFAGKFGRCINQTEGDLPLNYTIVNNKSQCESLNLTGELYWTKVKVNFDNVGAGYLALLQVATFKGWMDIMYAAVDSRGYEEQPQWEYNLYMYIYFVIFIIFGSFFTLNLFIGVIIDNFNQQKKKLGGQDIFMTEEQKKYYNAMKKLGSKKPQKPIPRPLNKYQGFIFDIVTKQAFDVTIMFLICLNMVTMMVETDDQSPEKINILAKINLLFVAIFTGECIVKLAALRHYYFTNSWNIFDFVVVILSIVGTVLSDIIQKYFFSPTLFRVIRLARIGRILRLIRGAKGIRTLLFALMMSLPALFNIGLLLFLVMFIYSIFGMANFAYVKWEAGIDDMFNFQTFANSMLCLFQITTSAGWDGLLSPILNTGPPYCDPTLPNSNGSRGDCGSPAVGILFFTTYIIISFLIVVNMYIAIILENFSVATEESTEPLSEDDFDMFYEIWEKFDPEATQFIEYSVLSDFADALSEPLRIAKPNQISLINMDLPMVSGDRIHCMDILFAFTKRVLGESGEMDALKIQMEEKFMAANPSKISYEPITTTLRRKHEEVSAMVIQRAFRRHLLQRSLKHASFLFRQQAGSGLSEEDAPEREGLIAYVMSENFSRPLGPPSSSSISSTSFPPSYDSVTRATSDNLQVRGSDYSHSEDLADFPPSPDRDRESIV

For the compound `CC1CN(Cc2cccc(F)c2CNc2cc(F)c(S(=O)(=O)Nc3cscn3)c(F)c2)C1` [Example 164, 2,6-difluoro-4-((2-fluoro-6-((3-methylazetidin-1-yl)methyl)benzyl)amino)-N-(thiazol-4-yl)benzenesulfonamide formate], the 50% inhibitory concentration (IC50) in series [1] (setting [4]) was determined as 20.3 µM; in series [2], 84 nM; in series [3], 22.8 µM.
Turning to `CN(C)Cc1cccc(F)c1CNc1cc(F)c(S(=O)(=O)Nc2cscn2)c(F)c1` [Example 165, 4-((2-((dimethylamino)methyl)-6-fluorobenzyl)amino)-2,6-difluoro-N-(thiazol-4-yl)benzenesulfonamide formate], the IC50 in series [1] was found to be 20.8 µM; in series [2], 361 nM; in series [3], 14.9 µM.
Consider `CN(Cc1cccc(F)c1CNc1cc(F)c(S(=O)(=O)Nc2cscn2)c(F)c1)CC1(C)COC1` [Example 167, 2,6-difluoro-4-((2-fluoro-6-((methyl((3-methyloxetan-3-yl)methyl)amino)methyl)benzyl)amino)-N-(thiazol-4-yl)benzenesulfonamide formate], for which the IC50 was ≥ 30 µM in series [1], 405 nM in series [2] and ≥ 30 µM in series [3].
On to `CC1(C)CN(Cc2cccc(F)c2CNc2cc(F)c(S(=O)(=O)Nc3cscn3)c(F)c2)C1` [Example 170, 4-((2-((3,3-dimethylazetidin-1-yl)methyl)-6-fluorobenzyl)amino)-2,6-difluoro-N-(thiazol-4-yl)benzenesulfonamide], for which the figures for the IC50 in series [1], in series [2] and in series [3] were 15.2 µM, 176 nM and 24.7 µM, respectively.
As for `O=S(=O)(Nc1cscn1)c1c(F)cc(NCc2c(F)cccc2CN2CCC23CCC3)cc1F` [Example 173, 4-((2-((1-azaspiro[3.3]heptan-1-yl)methyl)-6-fluorobenzyl)amino)-2,6-difluoro-N-(thiazol-4-yl)benzenesulfonamide formate], the values for the IC50 in series [1] (setting [4]), in series [2] and in series [3] were 19.5 µM, 50 nM and 7.22 µM, respectively.
The matching figures for `O=S(=O)(Nc1cscn1)c1c(F)cc(NCc2c(F)cccc2CN2CC3CC3C2)cc1F` (stereo not drawn) [Example 174, 4-((2-((3-azabicyclo[3.1.0]hexan-3-yl)methyl)-6-fluorobenzyl)amino)-2,6-difluoro-N-(thiazol-4-yl)benzenesulfonamide]: 30 µM, 35 nM and 30 µM.
The matching figures for `CC(C)CN(C)Cc1cccc(F)c1CNc1cc(F)c(S(=O)(=O)Nc2cscn2)c(F)c1` [Example 175, 2,6-difluoro-4-((2-fluoro-6-((isobutyl(methyl)amino)methyl)benzyl)amino)-N-(thiazol-4-yl)benzenesulfonamide]: 14.5 µM, 342 nM and 10.7 µM.
In the same order, the values of `O=S(=O)(Nc1cscn1)c1c(F)cc(NCc2c(F)cccc2CN2CC(O)(C(F)(F)F)C2)cc1F` [Example 176, 2,6-difluoro-4-((2-fluoro-6-((3-hydroxy-3-(trifluoromethyl)azetidin-1-yl)methyl)benzyl)amino)-N-(thiazol-4-yl)benzenesulfonamide formate] are 16.9 µM, 680 nM and 5.75 µM.
`O=S(=O)(Nc1cscn1)c1c(F)cc(NCc2c(F)cccc2CNC2CCC2)cc1F` [Example 177, 4-((2-((cyclobutylamino)methyl)-6-fluorobenzyl)amino)-2,6-difluoro-N-(thiazol-4-yl)benzenesulfonamide formate]: the IC50 in series [1] (setting [4]) amounted to 22.3 µM; in series [2] it was 46 nM; in series [3] it was 5.4 µM.
With `CC(C)(C)NCc1cccc(F)c1CNc1cc(F)c(S(=O)(=O)Nc2cscn2)c(F)c1` [Example 178, 4-((2-((tert-butylamino)methyl)-6-fluorobenzyl)amino)-2,6-difluoro-N-(thiazol-4-yl)benzenesulfonamide formate], the concentration for half-maximal inhibition (IC50) in series [1] (setting [4]) was determined as 30 µM; in series [2], 265 nM; in series [3], 13.4 µM.
Take `CN(Cc1cccc(F)c1CNc1cc(F)c(S(=O)(=O)Nc2cscn2)c(F)c1)C1CCC1` [Example 179, 4-((2-((cyclobutyl(methyl)amino)methyl)-6-fluorobenzyl)amino)-2,6-difluoro-N-(thiazol-4-yl)benzenesulfonamide formate]: the IC50 in series [1] (setting [4]) came out at 6.42 µM; in series [2] it was 80 nM; in series [3] it was 4.6 µM.
Take `CC1(F)CN(Cc2cccc(F)c2CNc2cc(F)c(S(=O)(=O)Nc3cscn3)c(F)c2)C1` [Example 180, 2,6-difluoro-4-((2-fluoro-6-((3-fluoro-3-methylazetidin-1-yl)methyl)benzyl)amino)-N-(thiazol-4-yl)benzenesulfonamide formate]: the IC50 stood at 24.2 µM in series [1] (setting [4]), 166 nM in series [2] and 22.1 µM in series [3].
As for `CN(Cc1cccc(F)c1CNc1cc(F)c(S(=O)(=O)Nc2cscn2)c(F)c1)C1COC1` [Example 181, 2,6-difluoro-4-((2-fluoro-6-((methyl(oxetan-3-yl)amino)methyl)benzyl)amino)-N-(thiazol-4-yl)benzenesulfonamide formate], the IC50 came out at 30 µM in series [1] (setting [4]), 2960 nM in series [2] and 10.6 µM in series [3].
In the same order, the values of `CCN(CC)Cc1cccc(F)c1CNc1cc(F)c(S(=O)(=O)Nc2cscn2)c(F)c1` [Example 183, 4-((2-((diethylamino)methyl)-6-fluorobenzyl)amino)-2,6-difluoro-N-(thiazol-4-yl)benzenesulfonamide formate] are 28 µM, 36 nM and 30 µM.
For `CCC(C)(C)N(C)Cc1cccc(F)c1CNc1cc(F)c(S(=O)(=O)Nc2cscn2)c(F)c1` [Example 184, 2,6-difluoro-4-((2-fluoro-6-((methyl(tert-pentyl)amino)methyl)benzyl)amino)-N-(thiazol-4-yl)benzenesulfonamide formate], the half-inhibitory concentration (IC50) in series [1] was ≥ 30 µM; in series [2], 332 nM; in series [3], ≥ 30 µM.
Turning to `O=S(=O)(Nc1cscn1)c1c(F)cc(NCc2c(F)cccc2CN2CC3(CC3)C2)cc1F` [Example 186, 4-((2-((5-azaspiro[2.3]hexan-5-yl)methyl)-6-fluorobenzyl)amino)-2,6-difluoro-N-(thiazol-4-yl)benzenesulfonamide formate], the 50% inhibitory concentration (IC50) in series [1] (setting [4]) came out at 9.12 µM; in series [2] it was 19 nM; in series [3], 15.5 µM.
In the same order, the values of `CN(Cc1cccc(F)c1CNc1cc(F)c(S(=O)(=O)Nc2ccsn2)c(F)c1)C(C)(C)C` [Example 189, 4-((2-((tert-butyl(methyl)amino)methyl)-6-fluorobenzyl)amino)-2,6-difluoro-N-(isothiazol-3-yl)benzenesulfonamide formate] are 30 µM, 522 nM and 30 µM.
With `O=S(=O)(Nc1cscn1)c1cc(Cl)c(NCc2cc(F)c(F)cc2CN2CCC2)cc1F` [Example 193, 4-((2-(azetidin-1-ylmethyl)-4,5-difluorobenzyl)amino)-5-chloro-2-fluoro-N-(thiazol-4-yl)benzenesulfonamide formate], the IC50 amounted to 26.7 µM in series [1] (setting [4]), 7490 nM in series [2] and 8.85 µM in series [3].
Take `O=S(=O)(Nc1cscn1)c1c(F)cc(NCc2cc(CN3CCC3)ccc2F)cc1F` [Example 195, 4-((5-(azetidin-1-ylmethyl)-2-fluorobenzyl)amino)-2,6-difluoro-N-(thiazol-4-yl)benzenesulfonamide formate]: the IC50 stood at 30 µM in series [1] (setting [4]), 688 nM in series [2] and 27.2 µM in series [3].
In the same order, the values of `O=S(=O)(Nc1cscn1)c1c(F)cc(NCc2cccc(F)c2CN2CCC2)cc1F` [Example 196, 4-((2-(azetidin-1-ylmethyl)-3-fluorobenzyl)amino)-2,6-difluoro-N-(thiazol-4-yl)benzenesulfonamide 2,2,2-trifluoroacetate] are 30 µM, 187 nM and 25.9 µM.
`O=S(=O)(Nc1cscn1)c1c(F)cc(NCc2cccc(F)c2CN2CCC2)c(Cl)c1F` [Example 197, 4-((2-(azetidin-1-ylmethyl)-3-fluorobenzyl)amino)-3-chloro-2,6-difluoro-N-(thiazol-4-yl)benzenesulfonamide 2,2,2-trifluoroacetate]: the IC50 in series [1] (setting [4]) stood at 27.6 µM; in series [2], 23 nM; in series [3], 12 µM.
Regarding `CC1(C)CCN1Cc1cccc(Cl)c1CNc1cc(F)c(S(=O)(=O)Nc2cscn2)c(F)c1` [Example 199, 4-((2-chloro-6-((2,2-dimethylazetidin-1-yl)methyl)benzyl)amino)-2,6-difluoro-N-(thiazol-4-yl)benzenesulfonamide formate], the IC50 in series [1] (setting [4]) stood at 30 µM; in series [2], 213 nM; in series [3], 4.08 µM.
The matching figures for `O=S(=O)(Nc1cccc(F)n1)c1cc(Cl)c(NCc2ccccc2CN2CCC2)cc1F` [Example 200, 4-((2-(azetidin-1-ylmethyl)benzyl)amino)-5-chloro-2-fluoro-N-(6-fluoropyridin-2-yl)benzenesulfonamide]: 15.4 µM, 496 nM and 4.43 µM.
The matching figures for `CC(C)N(C)Cc1cccc(F)c1CNc1cc(F)c(S(=O)(=O)Nc2ccon2)c(F)c1` [Example 201, 2,6-difluoro-4-((2-fluoro-6-((isopropyl(methyl)amino)methyl)benzyl)amino)-N-(isoxazol-3-yl)benzenesulfonamide 2,2,2-trifluoroacetate]: 30 µM, 561 nM and 30 µM.
Consider `CN(Cc1ccccc1CNc1cc(F)c(S(=O)(=O)Nc2cscn2)c(F)c1)C(C)(C)C` [Example 202, 4-((2-((tert-butyl(methyl)amino)methyl)benzyl)amino)-2,6-difluoro-N-(thiazol-4-yl)benzenesulfonamide 2,2,2-trifluoroacetate], for which the IC50 in series [1] (setting [4]) turned out to be 30 µM; in series [2], 534 nM; in series [3], 30 µM.
